Reference: patent publication US7943795B2, “Vitamin D receptor modulators” (Eli Lilly and Company, priority 2004, dated 2011)

Key:
[1] = Mouse hypercalcemia assay; format: in vivo
Experimental: 5. The Mouse Hypercalcemia test is described in the “Assay” section of the Description, infra.
The Mouse Hypercalcemia Assay
The Mouse Hypercalcemia Assay is a six day hypercalcemia test for toxicity and selectivity. Acceptable test results are levels greater than 30 μg/kg/day. Preferred assay results are levels greater than 300 μg/kg/day.
Weanling, virus—antibody-free, five to six weeks old female DBF mice (Harlan, Indianapolis, Ind.) are used for all the studies. Animals are allowed to acclimate to local vivarium conditions for 2 days. Mice are maintained on a 12 hr light/dark cycle at 22° C. with ad lib access to food (TD 5001 with 1.2% Ca and 0.9% P, Teklad, Madison, Wis.) and water. The animals then are divided into groups with 4-5 mice per group. Different doses of test compounds prepared in 10% ethanol and 90% sesame oil, or in an aqueous suspension of sodium lauryl sulfate and CMC (the latter formulation for acidic compounds) are administered to mice orally via gavage for 6 days. 1α-25(OH)2D3 0.5 μg/kg/d was also given to one group of mice as the positive control. Serum ionized calcium is evaluated at 6 hours after the last dosing under isoflurane anesthesia by Ciba-Corning Ca++/PH Analyzer, (Model 634, Chiron Diagnostics Corp., East Walpole, Mass.). Raw data of group differences is assessed by analysis of variance (ANOVA) using Fisher's protected least significant difference (PLSD) where the significance level was P<0.05.

rat osteocalcin promoter = test: OCN (osteocalcin) promoter assay; format: cell-based; conditions: RG-15 (ROS 17/2.8) cells, 48 hr treatment, luciferase reporter
Experimental: 4. The OCN Promoter test is described in the “Assay” section of the Description, infra.
The OCN (Osteocalcin) Promoter Assay
The OCN Promoter Assay is an indicator and marker for osteoporosis. Desired assay results are EC50 less than or equal to 325 nM. Preferred assay results are less than 50 nM.
The activation of osteocalcin by VDR ligands is evaluated in a rat osteoblast-like cell line RG-15 (ROS 17/2.8) stably expressing rat osteocalcin promoter fused with luciferase reporter gene. The stable cell lines are established as reported before (Activation of Osteocalcin Transcription involves interaction of protein kinase A- and Protein kinase C-dependent pathways. Boguslawski, G., Hale, L. V., Yu, X.-P., Miles, R. R., Onyia, J. E., Santerre R. F., Chandrasekhar, S. J Biol. Chem. 275, 999-1006, 2000). Confluent RG-15 cells maintained in DMEM/F-12 medium (3:1) containing 5% FBS, 300 μg/ml G418 and at 37° C. under 5% CO2/95% air atmosphere are trypsinized (0.25% trypsin) and plated into white opaque 96-well cell culture plates (25000 cells/well). After 24 hr, cells (in DMEM/F-12 medium+2% FBS) are treated with various concentrations of compounds, dissolved in DMSO. The final DMSO concentration remains at 0.01% (v/v). After 48 hr treatment, the medium is removed, cells are lysed with 50 μl of lysis buffer (From Luciferase reporter assay system, Roche Diagnostics, Indianapolis, Ind.) and then assayed for luciferase activity using the Luciferase Reporter Gene Assay kit from Boehringer Mannheim as per manufacturer's specifications.

RXR-VDR heterodimer = molecular target: T1, RXR-VDR heterodimer (Homo sapiens, UniProt P11473); test: RXR-VDR heterodimerization (SaOS-2 cells) test; format: cell-based; conditions: Gal-4-RXR-DEF / VP16-VDR-LBD, luciferase reporter
T1 construct: add the Reporter gene pFR-LUC; and add the Gal-4-RXR-DEF and VP16-VDR-LBD; expressed in transfected cells; host or cells: SaOS-2 cells
T1 sequence (P11473 127-423 limits assumed): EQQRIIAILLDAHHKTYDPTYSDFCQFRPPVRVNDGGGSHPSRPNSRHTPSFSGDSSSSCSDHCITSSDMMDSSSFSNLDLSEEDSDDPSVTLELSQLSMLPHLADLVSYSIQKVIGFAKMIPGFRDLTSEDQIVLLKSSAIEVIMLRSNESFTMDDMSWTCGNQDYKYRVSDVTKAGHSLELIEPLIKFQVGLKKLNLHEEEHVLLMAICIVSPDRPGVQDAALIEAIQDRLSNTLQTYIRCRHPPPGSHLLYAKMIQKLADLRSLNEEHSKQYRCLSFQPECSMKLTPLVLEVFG
T1 sequence (P19793 201-462 partner limits assumed): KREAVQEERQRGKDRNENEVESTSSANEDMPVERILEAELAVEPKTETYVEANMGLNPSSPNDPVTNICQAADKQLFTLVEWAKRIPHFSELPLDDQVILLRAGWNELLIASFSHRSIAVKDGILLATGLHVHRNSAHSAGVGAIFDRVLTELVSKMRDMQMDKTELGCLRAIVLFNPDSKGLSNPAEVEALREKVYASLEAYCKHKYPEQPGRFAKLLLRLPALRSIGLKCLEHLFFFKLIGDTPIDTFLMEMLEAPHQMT
Experimental: 2. The RXR-VDR heterodimerization (SaOS-2 cells) test is described in the “Assay” section of the Description, infra.
1. The RXR-VDR Heterodimer Assay:
This assay provides the VDR activity of a test compound. It is desirable to have low EC50 values for a compound in this assay. […] Desired assay results are EC50 values less than or equal to 600 nM. Preferred assay results are less than 250 nM, and most preferably less than 150 nM.
(1) Materials and Method for RXR-VDR Heterodimerization Assay Transfection
• Method: Reagents: FuGENE 6 Transfection Reagent (Roche Cat #1 814 443); Growth Media: D-MEM High Glucose (Gibco BRL Cat #11054-020), 10% heat inactivated FBS, (Gibco BRL Cat#10092-147) 1% antibiotic-antimycotic (Ab-Am); (Gibco BRL Cat #15240-062). • Cells: Grow SaOS-2 cells in T-150 cm^2 culture flasks in growth media keeping the density at 5-6×10^5 cells/ml. Passage cells 1:3 twice a week. Add Trypsin EDTA (Gibco BRL Cat #25300-020) and incubate. Resuspend cells in plating media and transfer into growth media. • Wash Media: HBSS Low Glucose Without Phenol Red (Gibco BRL Cat #14175-095), 1% Ab-Am. Plating Media: D-MEM Low Glucose Without Phenol Red (Gibco BRL Cat #11054-020), 1% Ab-Am; D-MEM; 10% Stripped FBS (Hyclone Cat#SH30068.03 Lot #AHM9371); • Transfection/Treatment Media: D-MEM Low Glucose Without Phenol Red only; T-150 cm^2 culture flask: Use Corning Coastar T-150 cm^2 culture flask (Cat #430825) to grow the cells. • Luciferase Assay Reagent: Use Steady-Glo Luciferase Reagent from Promega (Cat #E2550) Consists of: E2533 Assay Substrate, lyophilized product and E2543 Assay Buffer. Thaw at room temperature and store. • Cell Harvesting/Count: Aspirate media from culture flask, rinse cells with HBSS and aspirate. Add trypsin and incubate. When cells appear detached, resuspend cells in growth media. Transfer into a new flask with fresh growth media for passaging the cells. Plate 96 well plates and two extra plates. Mix the cell suspension using pipette. To count the cells using a Hematocytometer. • Plate seeding: Use plating media 10% Stripped FBS in D-MEM Low Glucose, without Phenol Red, 1% Ab-Am. Plate 14 plates @ 165 μl/well. In sterile flask add cell suspension to plating media and mix. Add cells/well. Place the cells in the incubator. Cells should be about 75% confluent prior to transfection. DAY 2: Transfection: Step 1, DNA and Media: Add plain DMEM media to tubes for mixing the DNA; add the Reporter gene pFR-LUC; and add the Gal-4-RXR-DEF and VP16-VDR-LBD. Step 2, FuGENE and Media: Prepare plain DMEM media in a tubes for mixing FuGENE, add FuGENE 6 Transfection Reagent, and incubate. Step 3, FuGENE, DNA and Media Complex: Add FuGENE Media complex from step 2 to DNA Media complex from step 1 and incubate. Step 4, FuGENE, DNA and Media Complex to 96 well plate: Add FuGENE-DNA-Media complex from step 3 to each plate. Incubate. • Day 3: Dosing: Treatment preparation. Allow for transfection time. Make a stock solution of the compounds in DMSO and vortex until all the compounds have been dissolved. Further dilute in D-MEM (Low Glucose—without Phenol Red) Add compounds in quadruplicate to give desired final volume then incubate. • Day 4: Luciferase Assay: Read the plates after drug treatment. Remove part of media from all the wells and leave remainder. Add Steady-Glo Luciferase Reagent mixture/wells and incubate. Count each well using a Luminescence counter, Top Count NXT by Packard preferably set a delay between plates to reduce the background.

VDR = molecular target: T2, VDR (Homo sapiens, UniProt P11473); test: VDR CTF (Caco-2 cells) co-transfection assay; format: cell-based; conditions: pGal4-VDR-LBD, luciferase reporter
T2 construct: the receptor expression vector pGal4-VDR-LBD (10 ng); expressed in transfected cells; host or cells: Caco-2 cells
T2 sequence (P11473 127-423 limits assumed): T1 sequence (P11473 127-423 limits assumed)
Experimental: 3. The VDR CTF (Caco-2 cells) test is described in the “Assay” section of the Description, infra.
The Caco-2 cell assay is an indicator for the undesirable condition of hypercalcemia. This co-transfection assay is a surrogate assay for in vivo calcemic activity of VDR ligands. It is desirable to have high EC50 values for a test compound in this assay. The higher the EC50 values for a compound the less calcemic it will be in vivo. Desired assay results are EC50 greater than or equal to 300 nM. Preferred assay results are greater than 1000 nM.
Caco-2 cells, grown in phenol red free, DMEM (Invitrogen, Carlsbad, Calif.) containing 10% charcoal-stripped FBS (Hyclone, Logan, Utah), are transfected with Fugene 6 reagent (Roche Diagnostics, Indianapolis, Ind.). Cells (5000/well) are plated 18 h before transfection in a 96 well plate. The cells are transfected with Gal4-responsive reporter pFRLuc (150 ng, Stratagene, La Jolla Calif.) and the receptor expression vector pGal4-VDR-LBD (10 ng), along with Fugene 6 reagent (0.2 μl/well). The DNA-Fugene complex is formed by incubating the mixture for 30 m at room temperature. The cells are transfected in triplicate for 5 h, and treated with various concentrations of VDR ligands (from 0.01 nM to […] concentration range) 18 h post-transfection. The luciferase activity is quantified using Steady-Glo reagent kit (Promega, Madison, Wis.) as per manufacturer's specifications.

[2] = no effect level: highest dose that did not cause hypercalcemia, oral gavage for 6 days, female DBF mice, serum ionized calcium

Row | Structure (SMILES) | Mouse Hypercal ([1]; female, DBF, mouse, in vivo, po, 6 days) [µg/kg/day] | EC50 (rat osteocalcin promoter) [nM] | EC50 (RXR-VDR heterodimer) [nM] | EC50 (VDR) [nM] | EC50 (rat osteocalcin promoter; Rattus norvegicus, 48 h) [nM] | Mouse Hypercal [1, 2] [µg/kg/day]
1 | CCC(CC)(c1ccc(OCC(O)C(C)(C)C)c(C)c1)c1ccc2cc(C(=O)O)ccc2c1 (single isomer, unassigned) [Ex. 2B, 6-{1-Ethyl-1-[4-(2-hydroxy-3,3-dimethyl-butoxy)-3-methyl-phenyl]-propyl}-naphthalene-2-carboxylic acid] | 1000 | 18.4 | 25.3 | – | – | –
2 | CCC(CC)(c1ccc(OCC(=O)C(C)(C)C)c(C)c1)c1ccc2ccc(C(=O)O)cc2c1 [Ex. 6, 7-{1-[4-(3,3-Dimethyl-2-oxobutoxy)-3-methylphenyl]-1-ethylpropyl}naphthalene-2-carboxylic acid] | – | – | 715 | 714 | 104 | –
3 | CCC(Oc1ccc(C(CC)(CC)c2ccc3cc(C(=O)NCC(=O)O)ccc3c2)cc1C)C(O)C(C)(C)C (stereo not drawn) [Ex. 7, 2-[6-{1-ethyl-1-[4-(1-ethyl-2-hydroxy-3,3-dimethyl-butoxy)-3-methyl-phenyl]-propyl}-naphthalene-2-carbonylamino]acetic acid] | – | – | 2.6 | – | 0.7 | 100
4 | CCC(Oc1ccc(C(CC)(CC)c2ccc3cc(C(=O)N(C)CC(=O)O)ccc3c2)cc1C)C(O)C(C)(C)C (stereo not drawn) [Ex. 8, N-methyl-2-[6-{1-ethyl-1-[4-(1-ethyl-2-hydroxy-3,3-dimethyl-butoxy)-3-methyl-phenyl]-propyl}-naphthalene-2-carbonyl-amino]acetic acid] | – | – | 2 | – | 0.6 | 300
